Results from publication PMC8767159, “Multiparameter Optimization of Trypanocidal Cruzain Inhibitors With In Vivo Activity and Favorable Pharmacokinetics” (Frontiers in Pharmacology, 2022).

How the values were obtained:
[1] = test system: T. cruzi intracellular amastigotes; assay: Assay against T. cruzi intracellular amastigotes (Tulahuen lacZ strain in HFF-1 fibroblasts); type: cell-based, Trypanosoma cruzi
Procedure: Biological assays against T. cruzi intracellular amastigotes were performed as reported previously using the T. cruzi Tulahuen strain, which is genetically engineered to express the E. coli β-galactosidase gene lacZ ([Buckner et al., 1996]). β-Galactosidase catalyzes a colorimetric reaction with chlorophenol red β-D-galactopyranoside (CPRG, Sigma Chemical Co., St. Louis, MO) as the substrate. The assays were conducted in 96-well tissue culture plates, and the compounds to be tested were prepared in 100% DMSO. Epimastigotes were maintained in liver infusion tryptone (LIT) enriched with 10% fetal calf serum (FCS), streptomycin, and penicillin at 28°C. Epimastigotes were converted to trypomastigotes by incubation in Grace’s insect medium (Sigma–Aldrich, St. Louis, MO) enriched with 10% FCS at 28°C. Human HFF-1 fibroblasts were seeded at 2 × 10^3/well in 80 μl of RPMI 1640 without phenol red and incubated overnight at 37°C and 5% CO2. Trypomastigotes were seeded at 1.0 × 10^4/well in 20 μl of RPMI 1640, and the plates were incubated at 37°C and 5% CO2. The next day, the synthesized compounds were added (50 μl) in 3-fold serial dilutions at concentrations ranging from 0.4 to 300 μM, and the plates were incubated at 37°C and 5% CO2. Each compound concentration was assayed in triplicate. After 120 h, 50 μl of chlorophenol red β-D-galactopyranoside (CPRG, Sigma–Aldrich) and IGEPAL CA-630 (Sigma–Aldrich) at a final concentration of 0.1% were added. The absorbance was measured at a wavelength of 570 nm in an automated microplate reader. The data were transferred to SigmaPlot 10.0 (Systat Software Inc., Erkrath, Germany) to determine the IC50 values. Benznidazole (BZ, Sigma–Aldrich) was used as a positive control, and untreated wells (100% parasite growth) were used as negative controls in all plates. All compounds were tested in three independent assays.

[2] = Fraction unbound by equilibrium dialysis; type: in vitro ADME; settings: pH 7.4
Procedure: The fraction unbound (fu) ([Masimirembwa et al., 2003]) of the test compounds was determined after incubation with different media, namely, plasma, microsomes, and buffer with 10% FCS. Equilibrium dialysis was performed in a 96-well plate (HT-Dialysis, Gales Ferry, CT) in which each well was divided by a semipermeable membrane (12–14 kDa cutoff). The test compounds diluted in either plasma, microsome suspension, or buffer were added to one side of the membrane. Potassium phosphate buffer (50 mM, pH 7.4) was added to the other side of the membrane. A standard curve was used to calculate the compound concentration (fu) on each side of the membrane. Stock solutions of each compound were prepared in 100% DMSO to obtain a final concentration of 1 mM. The following compound concentrations were used: 1, 2, 20, 200, 2,000 and 5,000 nM. To 500 μl of medium, 0.5 μl of the compound stock solution was added, and this was applied to one side of the well. Each compound was evaluated in triplicate. Next, the plate was assembled, sealed, and incubated at 37°C under rotation (150 rpm) for 4 h. After the incubation period, the plates were subjected to LC-MS/MS.

[3] = Trypanosoma cruzi, HFF-1, 120 h, Table 3, 120 h, mean ± SD of three assays
[4] = Table S6, fraction unbound used to correct plasma clearance
[5] = Trypanosoma cruzi, HFF-1, Table 4, mean ± SD of three assays
[6] = Table 5, fraction unbound used to correct CLint
[7] = Table 6, fraction unbound used to correct plasma clearance

Cn1c(CCNC(=O)COc2ccccc2)nc2ccccc21 [Compound 25]
IC50 T. cruzi (μM) ([1]; Table 3, 120 h, mean ± SD of three assays): inactive | IC50 [1, 3]: ~100 µM | fraction unbound at 4 h, 1 µM ([2]; Table S5, fraction unbound): 0.99

O=C(COc1ccc2c(C(=O)O)cccc2c1)NCCc1nc2ccccc2[nH]1 [Compound 15]
fraction unbound at 4 h, 1 µM ([2]; Table S5, fraction unbound): 1

O=C(COc1ccccc1)NCCc1nc2ccccc2n1-c1ccccc1 [Compound 30]
fraction unbound at 4 h, 1 µM ([2]; Table S5, fraction unbound): 0.63

O=C(COc1ccc2ccc(O)cc2c1)NCCc1nc2ccccc2[nH]1 [Compound 11]
IC50 [1, 3]: 2.8 ± 0.6 µM | fraction unbound at 4 h, 1 µM ([2]; Table S5, fraction unbound): 0.67 | fraction unbound at 4 h, 1 µM [2, 4]: 0.03

O=C(COc1ccccc1)NCCc1nc2ccccc2n1Cc1ccccc1 [Compound 26]
IC50 [1, 3]: 7.4 ± 2 µM | IC50 [1, 5]: 7.4 ± 2 µM | fraction unbound at 4 h, 1 µM ([2]; Table S5, fraction unbound): 0.61

O=C(COc1cccc(NC(=O)CCCO)c1)NCCc1nc2ccccc2[nH]1 [Compound 7]
fraction unbound at 4 h, 1 µM ([2]; Table S5, fraction unbound): 1

O=C(CCc1ccccc1Br)NCCc1nc2ccccc2[nH]1 [Compound 36]
fraction unbound at 4 h, 1 µM [2, 6]: 0.8 | fraction unbound at 4 h, 1 µM [2, 7]: 0.04

CC(=O)Nc1cccc(OCC(=O)NCCc2nc3ccccc3[nH]2)c1 [Compound 3]
IC50 [1, 3]: 5 ± 1 µM | IC50 [1, 5]: 5 ± 1 µM | fraction unbound at 4 h, 1 µM ([2]; Table S5, fraction unbound): 1 | fraction unbound at 4 h, 1 µM [2, 4]: 0.16

O=C(COc1cccc(N2C(=O)CCC2=O)c1)NCCc1nc2ccccc2[nH]1 [Compound 6]
fraction unbound at 4 h, 1 µM ([2]; Table S5, fraction unbound): 1

O=C(COc1ccccc1Br)NCCc1nc2ccccc2n1CCOc1ccccc1Br [Compound 23]
fraction unbound at 4 h, 1 µM ([2]; Table S5, fraction unbound): 0.04

O=C(COc1ccccc1)NCCc1nc2ccccc2n1CCOCc1ccccc1 [Compound 21]
fraction unbound at 4 h, 1 µM ([2]; Table S5, fraction unbound): 0.47

O=C(COc1ccc(NC(=O)CCCO)cc1)NCCc1nc2ccccc2[nH]1 [Compound 5]
IC50 [1, 5]: ~50 µM | fraction unbound at 4 h, 1 µM ([2]; Table S5, fraction unbound): 0.96

O=C(COc1ccccc1)NCCc1nc2ccccc2[nH]1 [Compound 1]
IC50 [1, 3]: 3.9 ± 0.3 µM | IC50 [1, 5]: 3.9 ± 0.3 µM | fraction unbound at 4 h, 1 µM ([2]; Table S5, fraction unbound): 1 | fraction unbound at 4 h, 1 µM [2, 4]: 0.23

O=C(COc1ccc2cc(O)ccc2c1)NCCc1nc2ccccc2[nH]1 [Compound 10]
IC50 [1, 3]: 14.6 ± 0.7 µM | IC50 [1, 5]: 14.6 ± 0.7 µM | fraction unbound at 4 h, 1 µM ([2]; Table S5, fraction unbound): 0.82 | fraction unbound at 4 h, 1 µM [2, 4]: 0.34

CC(=O)Nc1ccc(OCC(=O)NCCc2nc3ccccc3[nH]2)cc1 [Compound 2]
IC50 [1, 3]: 4.5 ± 0.6 µM | IC50 [1, 5]: 12.1 ± 1.3 µM | fraction unbound at 4 h, 1 µM ([2]; Table S5, fraction unbound): 1 | fraction unbound at 4 h, 1 µM [2, 4]: 0.49

Cc1ccccc1OCC(=O)NCCc1nc2ccccc2n1CCOc1ccccc1Br [Compound 22]
fraction unbound at 4 h, 1 µM ([2]; Table S5, fraction unbound): 0.03

O=C(COc1ccccc1)NCCc1nc2ccccc2n1CCCOc1ccccc1 [Compound 24]
IC50 [1, 3]: 1.43 ± 0.4 µM | IC50 [1, 5]: 1.43 ± 0.4 µM | fraction unbound at 4 h, 1 µM ([2]; Table S5, fraction unbound): 0.27

O=C(COc1ccc(N2C(=O)CCC2=O)cc1)NCCc1nc2ccccc2[nH]1 [Compound 4]
fraction unbound at 4 h, 1 µM ([2]; Table S5, fraction unbound): 0.99

O=C(COc1ccc2ccccc2c1)NCCc1nc2ccccc2[nH]1 [Compound 35]
IC50 [1, 5]: 46.1 ± 6.21 µM | fraction unbound at 4 h, 1 µM [2, 6]: 0.5 | fraction unbound at 4 h, 1 µM [2, 7]: 0.02

COc1ccc2cc(OCC(=O)NCCc3nc4ccccc4[nH]3)ccc2c1 [Compound 12]
IC50 [1, 3]: 16.6 ± 2.4 µM

COCCn1c(CCNC(=O)COc2ccccc2)nc2ccccc21 [Compound 29]
fraction unbound at 4 h, 1 µM ([2]; Table S5, fraction unbound): 1

Cc1ccccc1OCC(=O)NCCc1nc2ccccc2[nH]1 [Compound 17]
IC50 [1, 5]: 2.81 ± 0.75 µM | fraction unbound at 4 h, 1 µM [2, 6]: 0.8 | fraction unbound at 4 h, 1 µM [2, 7]: 0.06

C=CCCn1c(CCNC(=O)COc2ccccc2Cl)nc2ccccc21 [Compound 38]
IC50 [1, 5]: 11.1 ± 3.19 µM | fraction unbound at 4 h, 1 µM [2, 6]: 0.5 | fraction unbound at 4 h, 1 µM [2, 7]: 0.01

O=C(COc1cccc([N+](=O)[O-])c1)NCCc1nc2ccccc2[nH]1 [Compound 8]
IC50 [1, 3]: 3.5 ± 0.7 µM | IC50 [1, 5]: 3.5 ± 0.7 µM | fraction unbound at 4 h, 1 µM ([2]; Table S5, fraction unbound): 1 | fraction unbound at 4 h, 1 µM [2, 4]: 0.14

NC(=O)Cn1c(CCNC(=O)COc2ccccc2)nc2ccccc21 [Compound 28]
IC50 [1, 3]: 6.8 ± 0.9 µM | IC50 [1, 5]: 6.8 ± 0.9 µM | fraction unbound at 4 h, 1 µM ([2]; Table S5, fraction unbound): 0.98 | fraction unbound at 4 h, 1 µM [2, 4]: 0.18

O=C(COc1ccccc1)NCCc1nc2ccccc2n1CCOc1ccccc1Br [Compound 19]
fraction unbound at 4 h, 1 µM ([2]; Table S5, fraction unbound): 0.12

N#Cc1ccccc1OCC(=O)NCCc1nc2ccccc2[nH]1 [Compound 31]
fraction unbound at 4 h, 1 µM [2, 6]: 0.9 | fraction unbound at 4 h, 1 µM [2, 7]: 0.15

Cc1ccccc1OCC(=O)NCCc1nc2ccccc2o1 [Compound 37]
IC50 [1, 5]: 2.9 ± 0.66 µM | fraction unbound at 4 h, 1 µM [2, 6]: 0.9 | fraction unbound at 4 h, 1 µM [2, 7]: 0.05

O=C(COc1ccccc1[N+](=O)[O-])NCCc1nc2ccccc2[nH]1 [Compound 32]
IC50 [1, 5]: 7.9 ± 2.13 µM | fraction unbound at 4 h, 1 µM [2, 6]: 0.7 | fraction unbound at 4 h, 1 µM [2, 7]: 0.04

O=C(COc1ccccc1Br)NCCc1nc2ccccc2[nH]1 [Compound 18]
IC50 ([1]; Table 4, mean ± SD of three assays): 1.63 ± 0.57 µM | IC50 [1, 5]: 1.6 µM | fraction unbound at 4 h, 1 µM [2, 6]: 0.6 | fraction unbound at 4 h, 1 µM [2, 7]: 0.03

O=C(COc1ccccc1)NCCc1nc2ccccc2n1CCOc1ccccc1 [Compound 20]
IC50 [1, 3]: 2.04 ± 0.6 µM | IC50 [1, 5]: 2.04 ± 0.6 µM | fraction unbound at 4 h, 1 µM ([2]; Table S5, fraction unbound): 0.41

O=C(COc1ccc2ccccc2c1Br)NCCc1nc2ccccc2[nH]1 [Compound 34]
IC50 [1, 5]: 16.2 ± 3.51 µM | fraction unbound at 4 h, 1 µM [2, 6]: 0.1

Nc1cccc(OCC(=O)NCCc2nc3ccccc3[nH]2)c1 [Compound 9]
IC50 [1, 3]: 5.4 ± 0.9 µM | fraction unbound at 4 h, 1 µM ([2]; Table S5, fraction unbound): 0.99

O=C(COc1ccc(Br)cc1)NCCc1nc2ccccc2[nH]1 [Compound 33]
IC50 [1, 5]: 6.68 ± 2.35 µM | fraction unbound at 4 h, 1 µM [2, 6]: 0.8 | fraction unbound at 4 h, 1 µM [2, 7]: 0.16

O=C(Cn1ccnc1[N+](=O)[O-])NCc1ccccc1 [BZ, benznidazole, reference compound]
IC50 ([1]; Trypanosoma cruzi, HFF-1, Table 3, 120 h, mean ± SD of three assays): 1.45 ± 0.4 µM | IC50 [1, 5]: 3 ± 0.6 µM | fraction unbound at 4 h, 1 µM [2, 6]: 1 | fraction unbound at 4 h, 1 µM [2, 7]: 0.99

C=CCCn1c(CCNC(=O)COc2ccccc2)nc2ccccc21 [Compound 27]
IC50 [1, 3]: 6.9 ± 2.2 µM | IC50 [1, 5]: 6.9 ± 2.2 µM | fraction unbound at 4 h, 1 µM ([2]; Table S5, fraction unbound): 0.86
